This note sets out measurements from patent publication US9624241B2 (Incyte Corporation, priority 2013, dated 2017).

Read-outs that look alike come from different tables or passages of the source.

In one test the target is BRD4-BD1 (Homo sapiens (Human), UniProt O60885). Nature of the test: BRD4 AlphaScreen Assay (Example A2), BRD4-BD1. Type of test: binding. As for the experimental part: (§1) BRD4-BD1 and BRD4-BD2 assays were conducted in white 384-well polystyrene plate in a final volume of 40 μL for BD1 and 60 μL for BD2. Inhibitors were first serially diluted in DMSO and added to the plate wells before the addition of other reaction components. […] The assays were carried out at room temperature in the assay buffer (50 mM Tris-HCl, pH 7.5, 0.01% Tween-20, 0.01% BSA, 5 mM DTT), containing 50 nM Biotin-labeled tetra-acetylated histone H4 peptide (H4Ac4) and BRD4-BD1 or BRD4-BD2 protein at concentration less than 1 nM. […] After plate sealing, the plate was incubated in the dark at room temperature for 75 min. before reading on a PHERAstar FS plate reader (BMG Labtech). IC50 determination was performed by fitting the curve of percent control activity versus the log of the inhibitor concentration using the GraphPad Prism 5.0 software.

Another test addresses BRD4-BD2 (Homo sapiens (Human), UniProt O60885). Nature of the test: BRD4 AlphaScreen Assay (Example A2), BRD4-BD2. It is filed as binding. As to the method: as §1
Where [1] appears, read: Assay A2, AlphaScreen, BRD4-BD1, read-out: BRD4 BD-1 enzyme IC50.
Setting [2] is: Assay A2, AlphaScreen, BRD4-BD2, read-out: BRD4 BD-2 enzyme IC50.

`Cc1noc(C)c1-c1ccc2nc(C3CCN(S(C)(=O)=O)C3)n3c2c1OC[C@@H]3c1ccccn1` (mixture of isomers) [Example 115, (4S)-7-(3,5-dimethylisoxazol-4-yl)-2-[1-(methylsulfonyl)pyrrolidin-3-yl]-4-pyridin-2-yl-4,5-dihydroimidazo[1,5,4-de][1,4]benzoxazine (mixture of diastereomers)]: the IC50 at BRD4-BD1 (setting [1]) and at BRD4-BD2 (setting [2]) was less than 100 nM in each case.

Consider `CC(=O)N1CCCC(c2nc3ccc(-c4c(C)noc4C)c4c3n2[C@@H](c2ccccn2)CO4)C1` (mixture of isomers) [Example 117, (4S)-2-(1-acetylpiperidin-3-yl)-7-(3,5-dimethylisoxazol-4-yl)-4-pyridin-2-yl-4,5-dihydroimidazo[1,5,4-de][1,4]benzoxazine (mixture of diastereomers)], for which the IC50 on BRD4-BD1 (setting [1]) and at BRD4-BD2 (setting [2]) was less than 100 nM each time.

Take `Cc1noc(C)c1-c1ccc2nc(C3CCCN(C(=O)C4CC4)C3)n3c2c1OC[C@@H]3c1ccccn1` (mixture of isomers) [Example 118, (4S)-2-[1-(cyclopropylcarbonyl)piperidin-3-yl]-7-(3,5-dimethylisoxazol-4-yl)-4-pyridin-2-yl-4,5-dihydroimidazo[1,5,4-de][1,4]benzoxazine (mixture of diastereomers)]: the IC50 at BRD4-BD1 (setting [1]) and on BRD4-BD2 (setting [2]) was less than 100 nM each time.

On to `Cc1noc(C)c1-c1ccc2nc(C3CCCN(S(C)(=O)=O)C3)n3c2c1OC[C@@H]3c1ccccn1` (mixture of isomers) [Example 119, (4S)-7-(3,5-dimethylisoxazol-4-yl)-2-[1-(methylsulfonyl)piperidin-3-yl]-4-pyridin-2-yl-4,5-dihydroimidazo[1,5,4-de][1,4]benzoxazine (mixture of diastereomers)], for which the half-maximal inhibitory concentration (IC50) on BRD4-BD1 (setting [1]) and on BRD4-BD2 (setting [2]) was less than 100 nM throughout.

Regarding `Cc1noc(C)c1-c1ccc2c3c1CCC(c1ccccc1)n3c(=O)n2C` (racemic) [Example 121, 7-(3,5-Dimethylisoxazol-4-yl)-1-methyl-4-phenyl-5,6-dihydro-4H-imidazo[4,5,1-ij]quinolin-2(1H)-one], the IC50 was 100 to 1000 nM on BRD4-BD1 (setting [1]) and less than 100 nM at BRD4-BD2 (setting [2]).

With `Cc1noc(CO)c1-c1ccc2[nH]c(=O)n3c2c1OCC3c1ccccn1` (racemic) [Example 124, 7-[5-(Hydroxymethyl)-3-methylisoxazol-4-yl]-4-pyridin-2-yl-4,5-dihydroimidazo[1,5,4-de][1,4]benzoxazin-2(1H)-one], the IC50 is 1000 to 10000 nM at BRD4-BD1 (setting [1]) and 100 to 1000 nM on BRD4-BD2 (setting [2]).

Regarding `Cc1noc(C)c1-c1ccc2[nH]c(=O)n3c2c1OCC3c1cccnc1C#N` (racemic) [Example 126, 3-[7-(3,5-Dimethylisoxazol-4-yl)-2-oxo-1,2,4,5-tetrahydroimidazo[1,5,4-de][1,4]benzoxazin-4-yl]pyridine-2-carbonitrile], the IC50 on BRD4-BD1 (setting [1]) is 100 to 1000 nM; on BRD4-BD2 (setting [2]) it was less than 100 nM.

With `COC(=O)c1ncccc1C1COc2c(-c3c(C)noc3C)ccc3[nH]c(=O)n1c23` (racemic) [Example 132, Methyl 3-[7-(3,5-dimethylisoxazol-4-yl)-2-oxo-1,2,4,5-tetrahydroimidazo[1,5,4-de][1,4]benzoxazin-4-yl]pyridine-2-carboxylate], the IC50 at BRD4-BD1 (setting [1]) and on BRD4-BD2 (setting [2]) was less than 100 nM each time.

For `Cc1noc(C)c1-c1ccc2[nH]c(=O)n3c2c1OC(C(=O)NCCO)C3c1ccccc1` (single isomer, unassigned) [Example 48A, 7-(3,5-Dimethylisoxazol-4-yl)-N-(2-hydroxyethyl)-2-oxo-4-phenyl-1,2,4,5-tetrahydroimidazo[1,5,4-de][1,4]benzoxazine-5-carboxamide], the values for the IC50 on BRD4-BD1 (setting [1]) and at BRD4-BD2 (setting [2]) were 100 to 1000 nM and less than 100 nM, respectively.

For the compound `Cc1noc(C)c1-c1ccc2[nH]c(=O)n3c2c1OC(C(=O)NCCO)C3c1ccccc1` (single isomer, unassigned) [Example 48B, 7-(3,5-Dimethylisoxazol-4-yl)-N-(2-hydroxyethyl)-2-oxo-4-phenyl-1,2,4,5-tetrahydroimidazo[1,5,4-de][1,4]benzoxazine-5-carboxamide], the 50% inhibitory concentration (IC50) at BRD4-BD1 (setting [1]) was 100 to 1000 nM; on BRD4-BD2 (setting [2]), less than 100 nM.

As to `Cc1noc(C)c1-c1ccc2[nH]c(=O)n3c2c1OC(C)(C)C3c1ccccn1` (single isomer, unassigned) [Example 61A, 7-(3,5-Dimethylisoxazol-4-yl)-5,5-dimethyl-4-pyridin-2-yl-4,5-dihydroimidazo[1,5,4-de][1,4]benzoxazin-2(1H)-one], the half-maximal inhibitory concentration (IC50) at BRD4-BD1 (setting [1]) and on BRD4-BD2 (setting [2]) was less than 100 nM each time.

For the compound `Cc1noc(C)c1-c1ccc2[nH]c(=O)n3c2c1OC(CO)C3c1ccccn1` (single isomer, unassigned) [Example 62B, 7-(3,5-Dimethylisoxazol-4-yl)-5-(hydroxymethyl)-4-pyridin-2-yl-4,5-dihydroimidazo[1,5,4-de][1,4]benzoxazin-2(1H)-one], the concentration for half-maximal inhibition (IC50) at BRD4-BD1 (setting [1]) and at BRD4-BD2 (setting [2]) was less than 100 nM throughout.

Take `Cc1noc(C)c1-c1ccc2[nH]c(=O)n3c2c1OCC3C1CCCCN1` (single isomer, unassigned) [Example 63A, 7-(3,5-Dimethylisoxazol-4-yl)-4-piperidin-2-yl-4,5-dihydroimidazo[1,5,4-de][1,4]benzoxazin-2(1H)-one 2,2,2-trifluoroacetate]: the concentration for half-maximal inhibition (IC50) against BRD4-BD1 and against BRD4-BD2 was 100 to 1000 nM each time.

For the compound `Cc1noc(C)c1-c1ccc2[nH]c(=O)n3c2c1OCC3c1cccnc1C(=O)NC1CC1` (single isomer, unassigned) [Example 134, N-Cyclopropyl-3-[7-(3,5-dimethylisoxazol-4-yl)-2-oxo-1,2,4,5-tetrahydroimidazo[1,5,4-de][1,4]benzoxazin-4-yl]pyridine-2-carboxamide], the IC50 on BRD4-BD1 (setting [1]) and at BRD4-BD2 (setting [2]) was less than 100 nM throughout.

As for `Cc1noc(C)c1-c1cc(C(C)O)c2[nH]c(=O)n3c2c1OC[C@@H]3c1ccccn1` (single isomer, unassigned) [Example 144A], the IC50 on BRD4-BD1 (setting [1]) is 100 to 1000 nM; at BRD4-BD2 (setting [2]), less than 100 nM.

For the compound `Cc1noc(C)c1-c1cc(C(C)O)c2[nH]c(=O)n3c2c1OC[C@@H]3c1ccccn1` (single isomer, unassigned) [Example 144B], the half-maximal inhibitory concentration (IC50) is 100 to 1000 nM on BRD4-BD1 (setting [1]) and less than 100 nM on BRD4-BD2 (setting [2]).

For `Cc1noc(C)c1-c1ccc2nc(N3CC(O)C3)n3c2c1OCC3c1cccnc1` (single isomer, unassigned) [Example 160A, 1-[7-(3,5-Dimethylisoxazol-4-yl)-4-pyridin-3-yl-4,5-dihydroimidazo[1,5,4-de][1,4]benzoxazin-2-yl]azetidin-3-ol], the 50% inhibitory concentration (IC50) at BRD4-BD1 (setting [1]) lay in the range of 1000 to 10000 nM; at BRD4-BD2 (setting [2]) it was 100 to 1000 nM.

For the compound `Cc1noc(C)c1-c1ccc2nc(N3CC(O)C3)n3c2c1OCC3c1cccnc1` (single isomer, unassigned) [Example 160B, 1-[7-(3,5-Dimethylisoxazol-4-yl)-4-pyridin-3-yl-4,5-dihydroimidazo[1,5,4-de][1,4]benzoxazin-2-yl]azetidin-3-ol], the 50% inhibitory concentration (IC50) on BRD4-BD1 (setting [1]) and at BRD4-BD2 (setting [2]) was 1000 to 10000 nM in each case.

As to `Cc1noc(C)c1-c1ccc2nc(N3CC(O)C3)n3c2c1OCC3c1cccnc1` (single isomer, unassigned) [Example 160C, 1-[7-(3,5-Dimethylisoxazol-4-yl)-4-pyridin-3-yl-4,5-dihydroimidazo[1,5,4-de][1,4]benzoxazin-2-yl]azetidin-3-ol], the IC50 at BRD4-BD1 (setting [1]) and at BRD4-BD2 (setting [2]) was 1000 to 10000 nM in each case.

As for `Cc1noc(C)c1-c1ccc2nc(N3CC(O)C3)n3c2c1OCC3c1cccnc1` (single isomer, unassigned) [Example 160D, 1-[7-(3,5-Dimethylisoxazol-4-yl)-4-pyridin-3-yl-4,5-dihydroimidazo[1,5,4-de][1,4]benzoxazin-2-yl]azetidin-3-ol], the half-maximal inhibitory concentration (IC50) at BRD4-BD1 (setting [1]) and on BRD4-BD2 (setting [2]) was 1000 to 10000 nM in each case.

With `Cc1noc(C)c1-c1cc(Cl)c2[nH]c(=O)n3c2c1OCC3c1ccccn1` (single isomer, unassigned) [Example 266A, 9-chloro-7-(3,5-dimethylisoxazol-4-yl)-4-pyridin-2-yl-4,5-dihydroimidazo[1,5,4-de][1,4]benzoxazin-2(1H)-one], the concentration for half-maximal inhibition (IC50) on BRD4-BD1 (setting [1]) was 100 to 1000 nM; at BRD4-BD2 (setting [2]) it was less than 100 nM.

Take `Cc1noc(C)c1-c1cc(Cl)c2[nH]c(=O)n3c2c1OCC3c1ccccn1` (single isomer, unassigned) [Example 266B, 9-chloro-7-(3,5-dimethylisoxazol-4-yl)-4-pyridin-2-yl-4,5-dihydroimidazo[1,5,4-de][1,4]benzoxazin-2(1H)-one]: the results for the concentration for half-maximal inhibition (IC50) on BRD4-BD1 (setting [1]) and on BRD4-BD2 (setting [2]) were 1000 to 10000 nM and 100 to 1000 nM, respectively.

With `Cc1noc(C)c1-c1cc(Br)c2[nH]c(=O)n3c2c1OCC3c1ccccn1` (single isomer, unassigned) [Example 267A, 9-bromo-7-(3,5-dimethylisoxazol-4-yl)-4-pyridin-2-yl-4,5-dihydroimidazo[1,5,4-de][1,4]benzoxazin-2(1H)-one], the IC50 on BRD4-BD1 (setting [1]) and on BRD4-BD2 (setting [2]) was 1000 to 10000 nM each time.

In the case of `Cc1noc(C)c1-c1ccc2nc(C3CCN(C(=O)C4CC4)C3)n3c2c1OC[C@@H]3c1ccccn1` (single isomer, unassigned; diastereomer 2) [Example 114B], the IC50 on BRD4-BD1 (setting [1]) was less than 100 nM.

Regarding `Cc1noc(C)c1-c1ccc2nc(N3CCC(NC(=O)C(C)C)CC3)n3c2c1OCC3c1ccccn1` (stereo not drawn) [Example 244], the 50% inhibitory concentration (IC50) at BRD4-BD2 (setting [2]) is less than 100 nM.
